Reference: ChEMBL document CHEMBL1201862, “PubChem BioAssay data set” (2004)
Calls of active or inactive are those of the source.

What was measured:
Vero = experiment: Vero cell toxicity, dose response, cytotoxicity control, plate reader, cherry-pick samples (AID 687020); type: functional, cell-based; conditions: Chlorocebus sabaeus
Paired box protein Pax-8 = Paired box protein Pax-8 (Homo sapiens, UniProt Q06710); experiment: inhibitors of PAX8-driven TPO luciferase reporter, dose response, RMG-I cells, cherry-pick (AID 687027); type: functional, cell-based;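 further: luciferase reporter driven by Pax8 target thyroperoxidase promoter measured by SteadyGlo luminescence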
[1] = IOSE-T80 ovarian epithelial cell cytotoxicity, dose response, cytotoxicity control for PAX8 inhibitor project, plate reader, dry powder samples (AID 743045); type: functional, cell-based
[2] = NIH:OVCAR-3 ovarian cancer cell cytotoxicity, dose response, PAX8 inhibitor project, plate reader, dry powder samples (AID 743044); type: functional, cell-based
[3] = cytotoxicity in OVCAR8 ovarian cancer cells, dose response, PAX8 project, cell-based, plate reader, dry powder samples (AID 743197); type: functional; conditions: OVCAR-8
[4] = NIH/3T3 fibroblast cytotoxicity, dose response, cytotoxicity control, cell-based, plate reader, dry powder, set 2 (AID 652280); type: functional; conditions: NIH3T3
[5] = T. cruzi growth inhibition in host cells, dose response, cell-based, plate reader, dry powder, set 2 (AID 652275); type: functional
[6] = cytotoxicity in HEK-293T cells, dose response, cytotoxicity control for BCR NF-kB inhibitor project, luminescence, B-cell screen hits (AID 489021); type: functional, cell-based;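 further: HEK-293T cells carrying an NF-kB luciferase reporter; cells exposed to compound for about 14 hours before viability readout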
[7] = Shn3 3'UTR reporter inhibitors, dose response, cell-based, Clone20 osteoblasts, firefly luciferase, cherry-picked (AID 624132); type: functional;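 further: firefly luciferase luminescence from reporter carrying the Shn3 3'UTR in osteoblasts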
[8] = HepG2 cell cytotoxicity, dose response, cytotoxicity control for Shn3 inhibitor project, CellTiter-Glo, cherry-picked (AID 624134); type: functional, cell-based
[9] = control 3'UTR Renilla luciferase suppression, dose response, counter-screen for Shn3 inhibitor project, cell-based, Clone20-Shn3RL, cherry-picked (AID 624133); type: functional
Galanin receptor type 3 = Galanin receptor type 3 (Homo sapiens, UniProt O60755); experiment: Fluorescence-based cell-based primary high throughput dose response assay to identify antagonists of the Galanin Receptor 3 (GalR3).; type: functional
cells = type: functional, cell-based; conditions: HEK-CNG
[10] = off-target signal loss in HeLa-CEM21 co-culture – HeLa F-luc CTL cells, cherry-picked, counter-screen for HIV-1 Env fusion inhibitor project, dose response (AID 652040); type: functional, cell-based;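 further: potency for signal decrease marking cytotoxic or nonspecific inhibition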
[11] = inhibitors of clade B AD8 Env fusion, dose response, cell-based, cherry-pick (AID 652062); type: functional;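 further: luciferase signal from cell-cell fusion driven by HIV-1 clade B AD8 Env; potency is for inhibitors of fusion seen as a drop in luminescence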
[12] = biological target: COUP transcription factor 2 (Homo sapiens, UniProt P24468); experiment: Luminescence-based cell-based high throughput dose response assay to identify inhibitors of COUP-TFII (NR2F2).; type: functional;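 further: HEK293 cells transiently cotransfected with COUP-TFII expression vector and reporter; luciferase reporter luminescence driven by COUP-TFII from the pX2-168 reporter plasmid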
[13] = A375 melanoma cell viability loss, dose response, counter-screen for MITF inhibitor project, CellTiter-Glo luminescence, dry powder, set 4 (AID 624364); type: functional, cell-based; conditions: A-375;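 further: A375 melanoma cells are MITF independent so this is a counter screen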
[14] = A375 melanoma cell cytotoxicity, dose response, counter-screen for MITF inhibitor project, CellTiter-Glo luminescence, dry powder, set 2 (AID 624489); type: functional, cell-based; conditions: A-375;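 further: actives are compounds lowering A375 viability meaning general cytotoxicity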
[15] = HeLa cell cytotoxicity, dose response, cytotoxicity control, 24 h, plate reader, powder samples, set 3 (AID 651864); type: functional, cell-based
[16] = A549 cell cytotoxicity, dose response, cytotoxicity control, plate reader, cherry-pick, antagonist series (AID 743412); type: functional, cell-based
[17] = HepG2 cell cytotoxicity, dose response, cytotoxicity control, plate reader, cherry-pick, antagonist series (AID 743416); type: functional, cell-based
[18] = LGR2 antagonists, dose response, cell-based, HEK293, CRE-luciferase reporter, cherry pick (AID 743342); type: functional
[19] = HEK293 cell cytotoxicity, dose response, cytotoxicity control, plate reader, cherry-picked samples (AID 743446); type: functional, cell-based
[20] = P. falciparum Dd2 growth inhibitors, dose response, SYBR Green, dry powder samples, set 9 (AID 1159568); type: functional, cell-based
[21] = inhibitors of non-replicating M. tuberculosis, dose response, luciferase, dry powder (AID 651619); type: functional; conditions: Mycobacterium tuberculosis
[22] = inhibitors of non-replicating M. tuberculosis, dose response, luciferase, dry powder (AID 651620); type: functional; conditions: Mycobacterium tuberculosis
[23] = P. falciparum 3D7-ScDHODH growth inhibitors, dose response, SYBR Green, dry powder samples (AID 1159570); type: functional, cell-based;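 further: parasite growth measured after 72 hours of compound exposure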
[24] = HepG2 cell cytotoxicity, dose response, cytotoxicity control, plate reader, dry powder samples (AID 1159569); type: functional, cell-based;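 further: inhibitor potency with signal falling toward the positive control level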
[25] = P. falciparum Dd2 growth inhibitors, dose response, SYBR Green, cherry-picked samples (AID 1159567); type: functional, cell-based
[26] = P. falciparum Dd2 growth inhibitors, dose response, SYBR Green, dry powder samples (AID 1159566); type: functional, cell-based;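 further: potency for growth inhibition with lower SYBR green DNA signal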
[27] = P. falciparum ATP4 D1247Y mutant growth inhibitors, dose response, NITD609-resistant line, SYBR Green, dry powder (AID 1159571); type: functional, cell-based;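 further: parasites synchronized at ring stage by sorbitol before testing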
[28] = T. cruzi intracellular amastigote growth inhibition, dose response, imaging, CA-I/72 strain, bovine embryo skeletal muscle, dry powder (AID 651885); type: functional, cell-based
[29] = Vero cell cytotoxicity, dose response, cytotoxicity control for Vif-APOBEC3G degradation inhibitor project, Vero cells (AID 1117358); type: functional; conditions: Human immunodeficiency virus 1, Vero
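Wherever EC50 is given: target is galanin receptor GalR3 read with a cAMP biosensor in HEK293 cells.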

Chain of Paired box protein Pax-8 (Q06710 whole entry): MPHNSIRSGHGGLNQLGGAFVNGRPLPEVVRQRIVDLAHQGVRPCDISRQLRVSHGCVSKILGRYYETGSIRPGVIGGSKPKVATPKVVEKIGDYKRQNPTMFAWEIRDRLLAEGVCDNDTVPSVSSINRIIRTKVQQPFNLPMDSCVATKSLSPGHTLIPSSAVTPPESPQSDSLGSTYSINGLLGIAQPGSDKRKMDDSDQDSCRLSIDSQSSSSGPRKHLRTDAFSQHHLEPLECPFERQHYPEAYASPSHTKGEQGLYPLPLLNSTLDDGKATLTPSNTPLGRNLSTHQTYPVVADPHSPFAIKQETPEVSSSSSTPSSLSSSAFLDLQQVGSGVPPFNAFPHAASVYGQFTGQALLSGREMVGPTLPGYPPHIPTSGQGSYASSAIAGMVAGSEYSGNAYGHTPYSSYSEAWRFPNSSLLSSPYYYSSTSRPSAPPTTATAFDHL
Chain of Galanin receptor type 3 (O60755 whole entry): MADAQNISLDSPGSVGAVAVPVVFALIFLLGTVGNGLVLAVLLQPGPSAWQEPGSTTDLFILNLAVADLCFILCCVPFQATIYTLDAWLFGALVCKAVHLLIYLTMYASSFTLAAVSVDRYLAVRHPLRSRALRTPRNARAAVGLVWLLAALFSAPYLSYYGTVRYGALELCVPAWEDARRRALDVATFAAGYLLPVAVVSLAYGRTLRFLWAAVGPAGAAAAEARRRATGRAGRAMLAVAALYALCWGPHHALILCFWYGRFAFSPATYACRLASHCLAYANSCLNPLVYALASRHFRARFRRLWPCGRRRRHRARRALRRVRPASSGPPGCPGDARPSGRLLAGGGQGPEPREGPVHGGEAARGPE
Chain of COUP transcription factor 2 (P24468 whole entry): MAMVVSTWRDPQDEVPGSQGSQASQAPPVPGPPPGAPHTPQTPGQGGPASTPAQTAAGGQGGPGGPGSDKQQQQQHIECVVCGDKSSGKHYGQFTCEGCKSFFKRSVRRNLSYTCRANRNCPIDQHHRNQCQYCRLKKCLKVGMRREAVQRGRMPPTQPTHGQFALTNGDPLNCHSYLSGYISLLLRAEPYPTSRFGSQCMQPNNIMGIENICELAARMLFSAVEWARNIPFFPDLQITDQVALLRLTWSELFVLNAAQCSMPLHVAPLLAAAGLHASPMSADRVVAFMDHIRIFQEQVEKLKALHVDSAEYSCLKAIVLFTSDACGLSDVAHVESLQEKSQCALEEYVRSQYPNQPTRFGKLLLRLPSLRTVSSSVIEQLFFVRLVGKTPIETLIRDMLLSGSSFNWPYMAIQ

## C[C@@H]1CCCCO[C@H](CN(C)Cc2ccc(C(F)(F)F)cc2)[C@H](C)CN([C@@H](C)CO)C(=O)c2cc(NC(=O)c3ccccc3)ccc2O1
Vero
  AC50: 28.7 µM (active)
Paired box protein Pax-8
  AC50: 19.1 µM (active)
[1]
  AC50: 42.4 µM (active)
[2]
  AC50: 33.2 µM (active)
[3]
  AC50: 17.8 µM (active)

## O=C(C1CC1)N1CCCCN2[C@@H](CO)[C@H](c3ccc(-c4cccc(F)c4)cc3)[C@@H]2C1
[4]
  AC50: 26.7 µM (active)
[5]
  AC50: 0.312 µM (active)

## Cc1cc(C)c(CN2CCN(C(=O)Cn3cnc4c(NCc5ccccc5)ncnc43)CC2)c(C)c1
[6]
  IC50: > 80 µM (inactive)
[7]
  AC50: 0.417 µM (active)
[8]
  AC50: 0.773 µM (active)
[9]
  AC50: 0.818 µM (active)
Galanin receptor type 3
  IC50: 0.363 µM (active)
cells
  EC50: > 29.9 µM (inactive)
[10]
  AC50: 27.3 µM (active)
[11]
  AC50: 1.59 µM (active)
[12]
  IC50: 2.71 µM (active)

## C=CCNC1=C(N(C)C(C)=O)C(=O)c2ccccc2C1=O
[13]
  AC50: 8.92 µM (active)
[14]
  AC50: 2.59 µM (active)

## CCn1nccc1NCc1ccc(N2CCCC2)cc1
[15]
  AC50: > 160 µM (inactive)

## C[C@H]1CCCCO[C@@H](CN(C)C(=O)Nc2ccc(C(F)(F)F)cc2)[C@@H](C)CN([C@@H](C)CO)C(=O)c2cc(NC(=O)CCC(F)(F)F)ccc2O1
[16]
  AC50: 31 µM (active)
[17]
  AC50: > 52 µM (inactive)
[18]
  AC50: 4.55 µM (active)
[19]
  AC50: > 52 µM (inactive)

## C[C@@H]1CCCCO[C@H](CN(C)S(=O)(=O)c2ccccc2)[C@@H](C)CN([C@@H](C)CO)C(=O)c2cc(NC(=O)Nc3ccc4c(c3)OCO4)ccc2O1
[20]
  AC50: 1.64 µM (active)

## O=S(=O)(Cc1ccccc1)c1nnc(-c2ccccc2)o1
[21]
  IC90: 2 µM (active)
[22]
  IC90: 2 µM (active)

## CCCN(C)C[C@@H]1Oc2cc(C#Cc3cccnc3)ccc2S(=O)(=O)N([C@@H](C)CO)C[C@H]1C
[23]
  AC50: 3.59 µM (active)
[24]
  AC50: 79.5 µM (active)
[25]
  AC50: 2.13 µM (active)
[26]
  AC50: 2.62 µM (active)
[27]
  AC50: 2.99 µM (active)

## CC(C)N1C[C@H](C)[C@@H](CN(C)C(=O)OC(C)(C)C)Oc2c(NC(=O)c3ccccc3)cccc2C1=O
[28]
  IC50: > 20 µM (inactive)

## CCCCCO/C(O)=C1\C(C)=Nc2nnnn2C1c1ccccc1Cl (stereo not drawn)
[29]
  CC50: > 40 µM (active)
